Data as given in US10973784B2, “Compositions and methods for treating Alzheimer's disease and Parkinson's disease” (Biotie Therapies, Inc., priority 2016, dated 2021).
Like-named read-outs stand apart in the source and are kept apart here.

Assays:
[1] = Pharmacokinetic analysis of SYN120 tablets, multiple dose once daily (Example 9); assay type: in vivo, human; details: for Ae % / % Fluctuation / CL renal / half-life: arithmetic mean; for Ae %: urine; for CL renal / Cmax / AUC(0-t) / Tmax / concentration at 14 day / half-life: both sexes, human, oral; for CL renal: plasma and urine, read-out: 0-24 Clr; for Cmax / AUC(0-t) / Tmax / concentration at 14 day / half-life: plasma; for Cmax / AUC(0-t) / concentration at 14 day: geometric mean
Experimental: PK analysis in a multiple dose study was performed on 28 subjects (10 males and 18 females) on day 1 and on 27 subjects (10 males and 17 females) on day 14 who received SYN120 oral tablets. The dosing interval was once daily, approximately 40 minutes after a standard breakfast, for up to 21 days. The subjects were administered the same dose of SYN120 daily at one of the following doses: 100 mg; 300 mg; and 600 mg. The SYN120 oral tablets used in this study were the 50 mg tablets as described in Example 8.
Plasma samples were prepared from blood samples for PK analysis collected on days 1 and 14 at the following time points: 0, 0.5, 1, 1.5, 2, 3, 4, 6, 8, 12, and 24 hrs postdose. Additional blood samples were taken following administration on Day 14 at 32, 36, 48, 72, and 168 hrs (day 15 through day 21). In addition, on days 4 and 10, predose blood samples were collected, while on day 7, blood samples were collected predose and 4 hrs postdose. […] Mean plasma SYN120 concentrations at Day 1, (FIG. 7A and FIG. 7B), and at Day 14 (FIG. 8A and FIG. 8B) are also provided.

5-HT2A receptor = 5-HT2A receptor (Homo sapiens, UniProt P28223); details: cited from earlier work
5-HT2A receptor, sequence (P28223 whole entry): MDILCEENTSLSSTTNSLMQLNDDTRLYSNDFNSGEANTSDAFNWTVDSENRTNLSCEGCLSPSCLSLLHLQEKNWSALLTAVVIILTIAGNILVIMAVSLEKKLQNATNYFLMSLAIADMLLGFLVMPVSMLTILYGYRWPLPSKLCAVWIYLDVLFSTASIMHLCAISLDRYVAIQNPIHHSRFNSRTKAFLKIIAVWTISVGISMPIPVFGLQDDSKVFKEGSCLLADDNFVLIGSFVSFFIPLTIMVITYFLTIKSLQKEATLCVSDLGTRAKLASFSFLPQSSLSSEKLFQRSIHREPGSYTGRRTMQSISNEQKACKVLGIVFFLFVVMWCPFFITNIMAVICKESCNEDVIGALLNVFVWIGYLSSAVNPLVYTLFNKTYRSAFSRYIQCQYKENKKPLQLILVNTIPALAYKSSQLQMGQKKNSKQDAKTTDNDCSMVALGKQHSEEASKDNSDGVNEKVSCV

% Fluctuation ([1]; Day 14, 100 mg QD): 177%
Tlast ([1]; Day 14, 100 mg QD, median): 168 h
% Fluctuation ([1]; Day 14, 300 mg QD): 209%
Tlast ([1]; Day 14, 300 mg QD, median): 168 h
% Fluctuation ([1]; Day 14, 600 mg QD): 212%
Tlast ([1]; Day 14, 600 mg QD, median): 168 h
CL renal ([1]; 100 mg, Day 1, 100 mg QD): 1.25 mL/min
CL renal ([1]; 100 mg, Day 14, 100 mg QD): 1.33 mL/min
CL renal ([1]; 300 mg, Day 1, 300 mg QD): 1.33 mL/min
CL renal ([1]; 300 mg, Day 14, 300 mg QD): 1.34 mL/min
CL renal ([1]; 600 mg, Day 1, 600 mg QD): 1.45 mL/min
CL renal ([1]; 600 mg, Day 14, 600 mg QD): 1.31 mL/min
Cmax ([1]; 100 mg, Day 1, 100 mg QD): 813 ng/mL
AUC(0-t) ([1]; 100 mg, Day 1, 100 mg QD, read-out: AUC0-24): 7780 ng·h/mL
AUC(0-t) ([1]; 100 mg, Day 1, 100 mg QD, read-out: AUC0-last): 7780 ng·h/mL
Tmax ([1]; 100 mg, Day 1, 100 mg QD, median, read-out: Tmax): 4 h
Cmax ([1]; 100 mg, Day 14, 100 mg QD): 1240 ng/mL
AUC(0-t) ([1]; 100 mg, Day 14, 100 mg QD, read-out: AUC0-24): 14200 ng·h/mL
AUC(0-t) ([1]; 100 mg, Day 14, 100 mg QD, read-out: AUC0-last): 19200 ng·h/mL
concentration at 14 day ([1]; 100 mg, Day 14, 100 mg QD, read-out: Cmin): 201 ng/mL
concentration at 14 day ([1]; 100 mg, Day 14, 100 mg QD, read-out: Css): 591 ng/mL
Tmax ([1]; 100 mg, Day 14, 100 mg QD, median, read-out: Tmax): 3 h
Cmax ([1]; 300 mg, Day 1, 300 mg QD): 2750 ng/mL
AUC(0-t) ([1]; 300 mg, Day 1, 300 mg QD, read-out: AUC0-24): 29500 ng·h/mL
AUC(0-t) ([1]; 300 mg, Day 1, 300 mg QD, read-out: AUC0-last): 29500 ng·h/mL
Tmax ([1]; 300 mg, Day 1, 300 mg QD, median, read-out: Tmax): 4 h
Cmax ([1]; 300 mg, Day 14, 300 mg QD): 3470 ng/mL
AUC(0-t) ([1]; 300 mg, Day 14, 300 mg QD, read-out: AUC0-24): 36000 ng·h/mL
AUC(0-t) ([1]; 300 mg, Day 14, 300 mg QD, read-out: AUC0-last): 45700 ng·h/mL
concentration at 14 day ([1]; 300 mg, Day 14, 300 mg QD, read-out: Cmin): 357 ng/mL
concentration at 14 day ([1]; 300 mg, Day 14, 300 mg QD, read-out: Css): 1500 ng/mL
Tmax ([1]; 300 mg, Day 14, 300 mg QD, median, read-out: Tmax): 3 h
Cmax ([1]; 600 mg, Day 1, 600 mg QD): 5180 ng/mL
AUC(0-t) ([1]; 600 mg, Day 1, 600 mg QD, read-out: AUC0-24): 59600 ng·h/mL
AUC(0-t) ([1]; 600 mg, Day 1, 600 mg QD, read-out: AUC0-last): 59600 ng·h/mL
Tmax ([1]; 600 mg, Day 1, 600 mg QD, median, read-out: Tmax): 4 h
Cmax ([1]; 600 mg, Day 14, 600 mg QD): 5460 ng/mL
AUC(0-t) ([1]; 600 mg, Day 14, 600 mg QD, read-out: AUC0-24): 56100 ng·h/mL
AUC(0-t) ([1]; 600 mg, Day 14, 600 mg QD, read-out: AUC0-last): 74000 ng·h/mL
concentration at 14 day ([1]; 600 mg, Day 14, 600 mg QD, read-out: Cmin): 520 ng/mL
concentration at 14 day ([1]; 600 mg, Day 14, 600 mg QD, read-out: Css): 2340 ng/mL
Tmax ([1]; 600 mg, Day 14, 600 mg QD, median, read-out: Tmax): 3.51 h
Tmax ([1]; Day 14, across dose groups, read-out: median Tmax): 3 to 3.51 h
Tmax ([1]; Study Day 1, each dose group, read-out: median Tmax): 4 h
half-life ([1]; Day 14, 100 mg QD): 15.4 h
half-life ([1]; Day 14, 300 mg QD): 15.5 h
half-life ([1]; Day 14, 600 mg QD, n = 7): 15 h
Compound: NC(=O)NC[C@@H]1CCCc2cc(S(=O)(=O)c3cccc(F)c3)ccc21 [SYN120]
Ae % ([1]; Day 1, 100 mg QD): 0.610%
Ae % ([1]; Day 1, 300 mg QD): 0.857%
Ae % ([1]; Day 1, 600 mg QD): 0.997%
Ae % ([1]; Day 14, 100 mg QD): 1.15%
Ae % ([1]; Day 14, 300 mg QD): 0.988%
Ae % ([1]; Day 14, 600 mg QD): 0.756%
pKi (5-HT2A receptor): 7.8
